For series [1], the system named is SK-BR-3 human breast adenocarcinoma cells. Description: In vitro antiproliferative assay (SRB), SK-BR-3. It is filed as cell-based. The note with it: for IC50: Homo sapiens, SK-BR-3, 72 h exposure, SRB, mean ± SD; for Calculated selectivity index SIB: IC50 BALB/3T3/IC50 SK-BR-3; for Calculated selectivity index SIA: IC50 HLMEC/IC50 SK-BR-3. An excerpt: (§1) The following established in vitro cell lines were applied: human breast adenocarcinoma (MCF-7 and SK-BR-3), human breast ductal carcinoma (T47D), human prostate adenocarcinoma (PC-3), human prostate carcinoma (Du145), human colorectal adenocarcinoma (HT-29 and LoVo), doxorubicin-resistant human colorectal adenocarcinoma (LoVo/Dx), human myelomonocytic leukemia (MV-4-11), human lung adenocarcinoma (A549), normal murine embryonic fibroblasts (BALB/3T3) and human lung microvascular endothelial (HLMEC). All the cell lines were obtained from the American Type Culture Collection (Rockville, MD, USA) except for LoVo and LoVo/DX, which were received from the Technical University of Gdańsk, Poland, courtesy of Prof. E. Borowski. All the cell lines were maintained in the Institute of Immunology and Experimental Therapy, Wroclaw, Poland. The cells were cultured in the following media: DMEM medium (BALB/3T3), Eagle medium (MCF-7, SK-BR-3, Du145), RPMI medium (HLMEC, MV-4-11) or RPMI 1640 + Opti-MEM (1:1) medium (A549, T47D, LoVo, LoVo/Dx, PC-3, HT-29). The DMEM medium was supplemented with 2 mM L-glutamine and 10% fetal bovine serum. The Eagle medium was supplemented with 4 mM L-glutamine, 10% fetal bovine serum, 1 mM sodium pyruvate for Du145 cells or 2 mM L-glutamine, 1% amino acids and 0.8 mg L^−1 of insulin for MCF-7 and SK-BR-3. The RPMI medium was supplemented with 2 mM L-glutamine, 1 mM sodium pyruvate and 10% fetal bovine serum. The RPMI 1640 + Opti-MEM (1:1) medium was supplemented with 2 mM L-glutamine, 5% fetal bovine serum (PC-3, A549) and 0.8 mg L^−1 insulin (T47D) or 1 mM sodium pyruvate (HT-29, LoVo, LoVoDx) and 0.1 ug/mL doxorubicin (LoVo/Dx). The media contained antibiotics: 100 µg mL^−1 streptomycin and 100 U mL^−1 penicillin. All the cell lines were incubated at 37 °C in a humid atmosphere saturated with 5% CO2.
(§2) The details of this technique were described by Skehan et al.. After 72 h of incubation with the tested compounds, the cells were fixed in situ by gently adding cold 50% trichloroacetic acid—TCA (50 µL per well). The plates were incubated at 4 °C for 1 h and then washed five times with tap water and air-dried. Next, the cellular material fixed with TCA was stained by adding 50 µL of 0.4% sulforhodamine B dissolved in 1% acetic acid to each well and incubating the wells for 30 min at room temperature. The unbound dye was removed by washing the plates five times with 1% acetic acid, whereas the stain bound to the cells was extracted with 150 µL of 10 mM unbuffered Tris base for determination of the optical density at a 540 nm wavelength in a computer-interfaced, 96-well microtiter plate reader–Multiskan FC photometer (Thermo Scientific, Waltham, MA, USA). The background optical density was measured in the wells filled with culture medium, without the cells.
(§3) Twenty-four hours before incubation with the tested compounds, the cells were seeded in 96-well plates (Sarstedt, Nümbrecht, Germany) at a density of 10^4 cells per well (10^3 cells per well for HLMEC) in 100 µL of culture medium. The analysis of the antiproliferative activity of the compounds was performed using sulforhothamine B (SRB) (for all the adherent cells) or 3-(4,5-dimethylthiazol-2-yl)-2,5-diphenyl tetrazolium bromide (MTT) (for the leukemia cells—MV-4-11). The details of this technique have been previously described by Skehan et al. and Antoszak et al.. An assay was performed after 72 h of exposure at varying concentrations (from 0.1 to 100 µg mL^−1) of xanthohumol (1), aurone (2) and the reference drug cisplatin. Each compound at each concentration was tested in a single experiment, which was repeated at least 3 times. […] The results were calculated as the IC50 (μM) (half maximal inhibitory concentration), i.e., the concentration of the tested agent that inhibits the proliferation of the cancer cell population by half. […]

Series [2] has as its system Du145 human prostate carcinoma cells. Description: In vitro antiproliferative assay (SRB), Du145. The series is classed as cell-based. The note with it: for IC50: Homo sapiens, DU-145, Du145, 72 h exposure, SRB, mean ± SD; for Calculated selectivity index SIB: IC50 BALB/3T3/IC50 Du145; for Calculated selectivity index SIA: IC50 HLMEC/IC50 Du145.
Source text: as §1, §2, §3

Series [3] relates to normal murine embryonic fibroblasts (BALB/3T3). Description: In vitro cytotoxicity against normal cells (SRB), BALB/3T3. The note with it: BALB/3T3; for IC50: Mus musculus, BALB3T3 normal cell line, 72 h exposure, SRB, mean ± SD, read-out: Antiproliferative activity IC50. It is filed as cell-based.
Source text: as §1
(§4) The details of this technique were described by Skehan et al.. […] The unbound dye was removed by washing the plates five times with 1% acetic acid, whereas the stain bound to the cells was extracted with 150 µL of 10 mM unbuffered Tris base for determination of the optical density at a 540 nm wavelength in a computer-interfaced, 96-well microtiter plate reader–Multiskan FC photometer (Thermo Scientific, Waltham, MA, USA). The background optical density was measured in the wells filled with culture medium, without the cells.
(§5) Twenty-four hours before incubation with the tested compounds, the cells were seeded in 96-well plates (Sarstedt, Nümbrecht, Germany) at a density of 10^4 cells per well (10^3 cells per well for HLMEC) in 100 µL of culture medium. […] The results were calculated as the IC50 (μM) (half maximal inhibitory concentration), i.e., the concentration of the tested agent that inhibits the proliferation of the cancer cell population by half. […]

The subject of series [4] is LoVo human colorectal adenocarcinoma cells. The experiment in a line: In vitro antiproliferative assay (SRB), LoVo. It is filed as cell-based. The note with it: for IC50: Homo sapiens, LoVo, 72 h exposure, SRB, mean ± SD; for Calculated selectivity index SIB: IC50 BALB/3T3/IC50 LoVo; for Calculated selectivity index SIA: IC50 HLMEC/IC50 LoVo.
Source text: as §1, §2, §3

Series [5] has as its system MCF-7 human breast adenocarcinoma cells. Description: In vitro antiproliferative assay (SRB), MCF-7. It is filed as cell-based. The note with it: for IC50: Homo sapiens, MCF7, MCF-7, 72 h exposure, SRB, mean ± SD; for Calculated selectivity index SIB: IC50 BALB/3T3/IC50 MCF-7; for Calculated selectivity index SIA: IC50 HLMEC/IC50 MCF-7.
Source text: as §1, §2, §3

Series [6] deals with HT-29 human colorectal adenocarcinoma cells. Description: In vitro antiproliferative assay (SRB), HT-29. It is filed as cell-based. The note with it: for IC50: HT-29, 72 h exposure, SRB, mean ± SD; for Calculated selectivity index SIB: IC50 BALB/3T3/IC50 HT-29; for Calculated selectivity index SIA: IC50 HLMEC/IC50 HT-29.
Source text: as §1, §2, §3

Series [7] deals with human lung microvascular endothelial (HLMEC) cells. The experiment in a line: In vitro cytotoxicity against normal cells (SRB), HLMEC. The series is classed as cell-based. The note with it: for IC50: Homo sapiens, HLMEC normal cell line, 72 h exposure, SRB, mean ± SD, read-out: Antiproliferative activity IC50.
Source text: as §1, §4, §5

For series [8], the system named is breast cancer cell lines MCF-7, SK-BR-3, T47D. Description: Selectivity towards all breast cancer cell lines tested (SRB). It is filed as cell-based, human. The note with it: IC50 BALB/3T3/IC50 of MCF-7, SK-BR-3, T47D. As to the method:
The selective effect of a drug can be expressed by the selectivity index (SI), which is determined by comparing the cytotoxic activity of each compound against each cancer cell line with the activity against a normal cell line. The SI was calculated as the IC50 ratio for a normal cell line (SIA—HLMEC; SIB—BALB/3T3) to the IC50 value for the corresponding tumor cell line using the following equation:(1) SI=IC50 for normal cell line/IC50 for cancerous cell line […]
The details of this technique were described by Skehan et al.. […] The unbound dye was removed by washing the plates five times with 1% acetic acid, whereas the stain bound to the cells was extracted with 150 µL of 10 mM unbuffered Tris base for determination of the optical density at a 540 nm wavelength in a computer-interfaced, 96-well microtiter plate reader–Multiskan FC photometer (Thermo Scientific, Waltham, MA, USA). The background optical density was measured in the wells filled with culture medium, without the cells. […]

By IC50 is commonly meant the concentration that gives 50% inhibition.

With `COc1cc(O)c(CC=C(C)C)c(O)c1C(=O)/C=C/c1ccc(O)cc1` [compound 1, 3′-[3″,3″-dimethylallyl]-2′,4′,4-trihydroxy-6′-methoxychalcone], the IC50 in series [1] worked out at 12.6 ± 2.28 µM; in series [2] it was 10.3 ± 0.42 µM; in series [3] it was 19.6 ± 2.95 µM; in series [4], 5.53 ± 1.64 µM; in series [5], 9.29 ± 0.27 µM; in series [6] (listed as xanthohumol (1)), 91.3 ± 8.92 µM. The IC50 in series [6] (Homo sapiens, HT-29, 72 h) is over 50 µM; in series [7], 36.3 ± 6.7 µM. Further, the “Calculated selectivity index SIB” value in series [1] was 1.56; in series [2], 1.90; in series [4] it was 3.55; in series [5], 2.11; in series [6], 0.21. Besides, the “Calculated selectivity index SIA” value is recorded as 2.89 in series [1]; 3.51 in series [2]; 6.56 in series [4]; 3.91 in series [5]; 0.40 in series [6].
`COc1cc(O)c(CC=C(C)C)c2c1C(=O)/C(=C/c1ccc(O)cc1)O2` [compound 2, (Z)-6,4′-dihydroxy-4-methoxy-7-prenylaurone]: the half-inhibitory concentration (IC50) in series [1] was found to be 11.3 ± 0.17 µM; in series [2], 14.7 ± 4.42 µM; in series [3], 44.5 ± 5.16 µM; in series [4], 8.85 ± 4.85 µM; in series [5], 9.28 ± 0.5 µM; in series [6] (listed as aurone (2)), 62.1 ± 16.5 µM. Also, the IC50 in series [6] (Homo sapiens, HT-29, 72 h) was over 50 µM; in series [7], 52.8 ± 8.03 µM. Moreover, the “Calculated selectivity index SIB” value in series [1] is on record as 3.93; in series [2] it was 3.02; in series [4] it was 5.02; in series [5], 4.79; in series [6], 0.72. Further, the “Calculated selectivity index SIA” value was 4.67 in series [1]; 3.59 in series [2]; 5.97 in series [4]; 5.69 in series [5]; 0.85 in series [6]. Moreover, the “reduction of cytotoxic effect against normal cells relative to xanthohumol (1)” value was 2.3 fold in series [3] (p < 0.05) and 1.5 fold in series [7] (HLMEC, p < 0.05). For the same compound, the “selectivity index SIB, range over breast cancer cell lines” value in series [8] was 3.93–5.50.

The values above are taken from publication PMC10138577, “Prenylated Flavonoids with Selective Toxicity against Human Cancers” (International Journal of Molecular Sciences, 2023).
